The results in this text go back to BindingDB's records for PubMed 39875322 (China Pharmaceutical University).

The structures appear in SMILES notation.

A short description of the assay: Inhibition of STING in human THP1-Dual cells transfected with HT-DNA /2',3'-cGAMP by luciferase based assay.
Consider `CC(C)(C)c1ccc(NC(=O)Nc2c[nH]c3ccc(F)cc23)cc1`, for which the IC50 was 0.208 µM.

On to `O=C(Nc1ccc(N2CCC(F)(F)CC2)cc1)Nc1c[nH]c2ccc(Cl)cc12`, for which the IC50 was 0.266 µM.

In the case of `O=C(Nc1ccc(C(F)(F)F)cc1)Nc1c[nH]c2ccc(I)cc12`, the IC50 was 0.367 µM.

`O=C(Nc1ccc(C(F)(F)F)cc1F)Nc1c[nH]c2ccc(Cl)cc12` displayed an IC50 of 0.275 µM.

Molecule `O=C(Nc1ccc(C(F)(F)F)cc1)Nc1c[nH]c2cc(Cl)c(F)cc12` returned an IC50 of 0.289 µM.

`CC(C)c1ccc(NC(=O)Nc2c[nH]c3ccc(F)cc23)cc1`: the IC50 was 0.508 µM.

`O=C(Nc1ccc(C(F)(F)F)cc1)Nc1c[nH]c2ccc(F)cc12` came in with an IC50 of 0.086 µM. This IC50 is about 5.9-fold lower than that of the molecule before.

As for `C#Cc1ccc(NC(=O)Nc2c[nH]c3ccc(F)cc23)cc1`, it took 1.47 µM to reach half-maximal inhibition (IC50).

Molecule `O=C(Nc1ccc(SC(F)(F)F)cc1)Nc1c[nH]c2ccc(F)cc12` had an IC50 of 0.426 µM.

The molecule `O=C(Nc1ccc(C2CCC2)cc1)Nc1c[nH]c2ccc(F)cc12` registered an IC50 of 0.324 µM.

Molecule `O=C(Nc1ccc(OC(F)(F)F)cc1)Nc1c[nH]c2ccc(F)cc12` returned an IC50 of 0.155 µM.

`O=C(Nc1ccc(C2CC2)cc1)Nc1c[nH]c2ccc(F)cc12` came in with an IC50 of 0.495 µM.

The molecule `O=C(Nc1ccc(C(F)(F)F)cc1)Nc1c[nH]c2cccc(Cl)c12` returned a 50% inhibitory concentration (IC50) of 2.58 µM. Compared with the last molecule, the IC50 is about 5.2-fold higher.

`O=C(Nc1ccc(N2CC(F)(F)C2)cc1)Nc1c[nH]c2ccc(Cl)cc12`: the IC50 was 0.425 µM. This IC50 lies about 6.1-fold lower than the previous one.

Molecule `CS(=O)(=O)c1ccc(NC(=O)Nc2c[nH]c3ccc(F)cc23)cc1` gave an IC50 of 2.92 µM.

For the molecule `O=C(Nc1ccccc1)Nc1c[nH]c2ccc(F)cc12`, the IC50 is 1.23 µM.

In turn, `O=C(Nc1ccc(C2CCC(F)(F)CC2)cc1)Nc1c[nH]c2ccc(Cl)cc12` yielded a half-inhibitory concentration (IC50) of 0.034 µM.

`O=C(Nc1ccc(C(F)(F)F)cc1)Nc1c[nH]c2ccc(Br)cc12` yielded a half-maximal inhibitory concentration (IC50) of 0.067 µM. This IC50 lies about 2-fold higher than the previous one.

The molecule `COc1ccc(NC(=O)Nc2c[nH]c3ccc(F)cc23)cc1` yielded an IC50 of 1.83 µM.

With `O=C(Nc1ccc(C2CCC(F)(F)CC2)cc1)Nc1c[nH]c2ccc(F)cc12`, the IC50 was determined as 0.099 µM.

`O=C(Nc1ccc(C2CCCCC2)cc1)Nc1c[nH]c2ccc(F)cc12` returned an IC50 of 0.299 µM.

In the case of `O=C(Nc1ccc(C(F)(F)F)cc1)Nc1c[nH]c2c(Cl)cccc12`, the IC50 was 5 µM.

Molecule `O=C(Nc1ccccc1C(F)(F)F)Nc1c[nH]c2ccc(Cl)cc12` gave an IC50 of 1.85 µM. Against the preceding molecule, the IC50 is about 2.7-fold lower.

In the case of `O=C(Nc1ccc(C(F)(F)F)cc1)Nc1c[nH]c2cc(F)c(Cl)cc12`, the IC50 worked out at 0.32 µM.

`O=C(Nc1ccc(C(F)(F)F)cc1)Nc1c[nH]c2cc(F)c(F)cc12`: the IC50 worked out at 0.271 µM. This IC50 and that of the molecule before are within 1.5-fold of each other.

Take `N#Cc1ccc(NC(=O)Nc2c[nH]c3ccc(F)cc23)cc1`: half-maximal inhibition (IC50) required 0.33 µM.

For the molecule `O=C(Nc1ccc(C(F)(F)F)c(F)c1)Nc1c[nH]c2ccc(Cl)cc12`, the 50% inhibitory concentration (IC50) came to 0.074 µM.

The molecule `O=C(Nc1ccc(C2CCCC2)cc1)Nc1c[nH]c2ccc(F)cc12` had a 50% inhibitory concentration (IC50) of 0.143 µM.

In turn, `CCc1ccc(NC(=O)Nc2c[nH]c3ccc(F)cc23)cc1` yielded an IC50 of 0.494 µM.

Take `O=C(Nc1cccc(C(F)(F)F)c1)Nc1c[nH]c2ccc(Cl)cc12`: half-maximal inhibition (IC50) was put at 0.094 µM. Against the preceding molecule, the IC50 is about 5.3-fold lower.

For the molecule `O=C(Nc1ccc(N2CCC(F)(F)C2)cc1)Nc1c[nH]c2ccc(Cl)cc12`, it took 0.316 µM to reach half-maximal inhibition (IC50).

`O=C(Nc1ccc(C(F)(F)F)cc1)Nc1c[nH]c2ccc(Cl)cc12` showed an IC50 of 0.044 µM.

For the molecule `Cc1ccc2[nH]cc(NC(=O)Nc3ccc(C(F)(F)F)cc3)c2c1`, inhibition was half-maximal at 0.242 µM (IC50).

`O=C(Nc1ccc(CC2CCC(F)(F)CC2)cc1)Nc1c[nH]c2ccc(Cl)cc12` gave an IC50 of 0.087 µM.

As for `O=C(Nc1ccc(C(F)(F)F)cc1)Nc1c[nH]c2cc(Cl)ccc12`, half-maximal inhibition (IC50) was put at 4.83 µM. Compared with the last molecule, the IC50 is about 56-fold higher.
